Measurements: patent publication US20230128322A1, “SYK KINASE INHIBITORS AS TREATMENT FOR MALARIA” (Purdue Research Foundation, priority 2012, published 2023)
Entries after “also recorded” stand apart in the source; their conditions may differ. Structures can show the parent of a compound that is named as a salt.

Legend:
[1] = cited from earlier work
[2] = test system: parasite in RBCs; assay: microscopy of Giemsa stained blood smears of treated infected RBCs; assay type: cell-based
Method: FIGS. 9A-9E are microscopy photographs of standard blood smears. Smears were prepared on glass slides, fixed with 100% methanol, and stained in 10% Giemsa modified stain diluted in PBS for 10 minutes at room temperature.
FIGS. 10A-D are microscopy photographs of standard blood smears. Smears were prepared on glass slides, fixed with 100% methanol, and stained in 10% Giemsa modified stain diluted in PBS for 10 minutes at room temperature.
FIGS. 11A-C are microscopy photographs of standard blood smears. Smears were prepared on glass slides, fixed with 100% methanol, and stained in 10% Giemsa modified stain diluted in PBS for 10 minutes at room temperature.

[3] = test system: P. falciparum Dd2-infected erythrocytes; assay: parasitemia of synchronous P. falciparum Dd2 cultures
[4] = cited from earlier work; remark: listed apart in the source
[5] = test system: band 3; assay: orthovanadate-induced band 3 tyrosine phosphorylation in erythrocytes; assay type: cell-based, human; conditions: 10 uM, 1 hour, then 2 mM orthovanadate
[6] = test system: malaria infected RBCs; assay: ex vivo parasitemia in blood from malaria infected Vietnamese patients (PCR); assay type: cell-based, human; conditions: 48 hours of incubation, various concentrations
[7] = test system: P. falciparum-infected RBCs; assay: vesiculation (microparticle release) of infected RBCs; assay type: cell-based, human; conditions: 10 μM, added 12 hours after infection
Method: Micro-vesicle Quantification. Infected and non-infected RBCs were washed 3× in RPMI 1640-HEPES medium and then resuspended at 10% hematocrit in the same medium containing a protease inhibitor cocktail (Sigma-Aldrich). […] Cells were then centrifuged at 2000×g to pellet the RBCs followed by a centrifugation step at 20,000×g for 10 minutes to pellet the RBC membranes. RBC vesicles present in the supernatant were labeled with anti-glycophorin A antibodies or with eosine-maleimide for labeling band 3, and quantified using a FACSCalibur cytometer (BD Biosciences) and the Cell Quest analysis software (BD Biosciences). Vesicles were selected using forward and side light scatter (FSC and SSC signals set to logarithmic amplification). A total of 40,000 events were analyzed. The amount of MPs released by infected RBCs was also measured. […] MPs were isolated from the supernatant by differential centrifugation (as in the INODs paper) and their amount was estimated measuring their band 3 content ([…] blots). Data are mean of 2 experiments with SD (in the second experiment we could measure only the ast times). […] To measure vesiculation, microparticles were isolated from the culture supernatants and quantified based on their band 3 content (determined by Western blotting) [Pantaleo, Free Radic Biol Med 2012, 52: 527-536].

[8] = test system: P falciparum strain Palo Alto; assay: parasitemia / re-infection in P. falciparum-infected RBC cultures; assay type: cell-based, Plasmodium falciparum; conditions: for parasitemia level as % of the initial level: added 24 hours after start of culture, 72 hours after treatment; for effect on level of parasitemia during second cycle (re-infection): all concentrations examined (0.1-10 μM); for effect on level of parasitemia during first parasite cycle: first 48 hours, inhibitor added 24 hours after start
Method: Inhibition of Syk in RBCs. Infected and non-infected RBCs were treated with Syk kinase inhibitor 11 (FIG. 2) at different concentrations and at different times after the start of the cultures. Cultivation of P. falciparum-infected RBCs. Freshly drawn blood (Rh+) from healthy adults of both sexes was used following informed consent in all studies. […] To assess total parasitemia and the relative numbers of ring and trophozoite stage cells, slides were prepared from cultures at the indicated times and stained with Diff-Quik reagent prior to analysis. 1000 cells were then scored by microscopic analysis of the cell staining patterns. To evaluate the potential of Syk kinase inhibitors as a therapy for treating malaria, the effect of Syk kinase inhibitors on preventing re-infection of additional erythrocytes was evaluated. Based on the hypothesis that destabilization of the RBCM is beneficial to the parasite during egress, blocking RBCM destabilization by inhibiting Syk-mediated tyrosine phosphorylation of band 3 may result in a reduction in the spread of infected cells. To test this, erythrocyte cultures were infected with P. falciparum and then treated 24 hours later with the Syk kinase inhibitor (0, 0.1, 1, and 10 uM concentrations) (FIG. 2). In this set of experiments Syk kinase inhibitors have been added 24 hours after the start of the parasite cultures. Data are means of 2 or 4 experiments with standard deviations. The data presented represents the mean of two to four experiments. The level of parasitemia was then calculated at 24, 48, 72 and 96 hours after addition of the Syk kinase inhibitor. The efficiency of the Syk kinase inhibitor at different stages of the parasite development cycle was examined. […] Growth inhibition was calculated as a % re-invasion rate relative to untreated cultures. […] However, when infected cultures are treated at 24 hours after the initial infection, nearly 100% of parasite re-infection is inhibited. This time point was confirmed in a flow cytometric analysis where the number of merozoites released from isolated schizonts, were measured with or without Syk kinase inhibitor treatment. […] This is consistent with our proposed mechanism of the Syk kinase inhibitor blocking the necessary destabilization of the erythrocyte cell membrane required for egress. Inhibition of Syk in RBCs. Infected and non-infected RBCs were treated with Syk kinase inhibitor IV (FIG. 6) at different concentrations and at different times after the start of the cultures. Cultivation of P. falciparum-infected RBCs. Freshly drawn blood (Rh+) from healthy adults of both sexes was used following informed consent in all studies. […] To assess total parasitemia and the relative numbers of ring and trophozoite stage cells, slides were prepared from cultures at the indicated times and stained with Diff-Quik reagent prior to analysis, 1000 cells were then scored by microscopic analysis of the cell staining patterns. To test this, erythrocyte cultures were infected with P. falciparum and then treated 24 hours later with the Syk kinase inhibitor (0, 0.1, and 10 uM concentrations) (FIG. 6). The data presented represents the mean of two to four experiments. The level of parasitemia was then calculated at 24, 48, 72 and 96 hours after addition of the Syk kinase inhibitor.

[9] = test system: artemisinin resistant parasites in malaria infected blood; assay: ex vivo parasite growth in artemisinin resistant blood of patient 4 (PCR); assay type: cell-based, human
Method: A blood sample was acquired from patient 4 prior to treatment with artemisinin and 13 day after treatment with artemisinin. […] These parasites are considered artemisinin resistant since there is a persistent parasitemia in the patient, even after artemisinin therapy.
Upon arrival of each sample, malaria infected RBCs were separated from plasma and leukocytes by three washes in wash medium (RPMI 1640 medium containing 2 mM glutamine, 24 mM NaHCO, 25 mM Hepes, 20 mM glucose, and 32 mg/m gentamicin, pH 6.80).
Smears of infected erythrocytes were obtained to assess initial parasitemia. Slides were fixed in 100% methanol and stained with 1/10 dilution of Giemsa solution, incubated for 10 min at room temperature, washed with water, dried, and observed under oil immersion lens (100×) for microscopic analysis. An aliquot was also saved for PCR analysis.
Malaria infected erythrocytes were re-suspended at 2% hematocrit in growth medium consisting of RPMI 1640 supplemented with 2 mM glutamine, 24 mM NaHCO, 25 mM Hepes, 20 mM glucose, and […] gentamicin, pH 6.80 and 10% heat inactivated human serum. Infected blood was aliquoted into 96 well plates pretreated with Syk kinase inhibitor H and incubated at 37° C. in CO2 incubation bags. After 48 hours of incubation, the cultures were processed and analyzed by PCR.

[10] = test system: band 3; assay: band 3 tyrosine phosphorylation in parasite cultures (Western blot); assay type: cell-based, human; conditions: 10 μM added at 12 hours; at 48 hours post infection
Method: Immunoblot Analysis. […] The nitrocellulose membranes were then probed using either fluorescein-5'-maleimide (0.25 mg/ml) (Pierce) or anti-phosphotyrosine antibody (Santa Cruz, Calif.) and anti-Syk (Santa Cruz, Calif.) antibodies and with anti-band 3 (Sigma Aldrich). The blots were then analyzed using an 800 nm laser scanner (Odyssey, Licor, USA). […] In this set of experiments, Syk kinase inhibitors were added 12 hours after the start of the parasite cultures. The content of band 3 was measured by western blotting. The percent of band 3 phosphorylation was also measured. […] Band 3 phosphorylation levels have been normalized for the band 3 content ([…] blot). The expectation is that band 3 tyrosine phosphorylation would also be diminished in the Syk kinase inhibitor treated cultures. This is indeed the case. The % of band tyrosine phosphorylation was measured via Western blotting with an anti-phosphotyrosine antibody. […] The cultures were then normalized to the vandate induced level of phosphorylation. […] This is consistent with the hypothesis that just prior to egress the parasite would phosphorylate band 3, disrupt its interaction with ankyrin and result in a destabilized membrane that is more susceptible to breech as required during egress.

SMILES: COc1ccc2c(c1)c(C=C1C(=O)Nc3ccc(S(N)(=O)=O)cc31)cn2CCCO [Compd 18]
- Solubility [1]: <0.1 mg·L

SMILES: Cc1ccc(NC(=O)c2ccc(CN3CCN(C)CC3)cc2)cc1Nc1nccc(-c2cccnc2)n1 [Imatinib mesylate, 4-[(4-Methyl-1-piperazinyl)methyl]-N-[4-methyl-3-[[4-(3-pyridinyl)-2-pyrimidinyl]amino]-phenyl]benzamide methanesulfonate]
- parasite development in blood smears ([2]; 8 μM, up to 121 hour): able to delay the lifecycle of the parasite
- parasite morphology in blood smears ([2]; 10 μM, listed as Gleevec, methanesulfonate): immature trophs from the first cycle that have not matured; also recorded: merozoites stuck or trapped inside the RBCs that cannot egress; also recorded: pyknotic parasites, or dead parasites in condensed form
- parasitemia during the first cycle ([3]; first 44 hours, added 20 hours after start): did not cause significant changes in parasitemia
- re-infection at the second cycle ([3]; higher concentrations): fail to reinfect healthy erythrocytes
- viability after 4 cycles of growth ([3]; higher concentrations): remain nonviable
- effect on parasite cycles ([3]; starting at 8 μM): able to delay the cycles of the parasite
- time post-dose at which Cmax is achieved ([4]; oral administration): 2 to 4 h
- band 3 tyrosine phosphorylation [5]: completely inhibited
- parasitemia of infected patient blood [6]: effective at reducing the parasitemia

SMILES: Cc1ccc(NC(=O)c2ccc(CN3CCNCC3)cc2)cc1Nc1nccc(-c2cccnc2)n1 [N-desmethyl derivative]
- plasma AUC of metabolite as % of the AUC for imatinib ([4]; humans): about 15%
- elimination half-life ([4]; oral administration in healthy volunteers): ~40 h

SMILES: NCCNc1ncc(C(N)=O)c(Nc2cccc(C(F)(F)F)c2)n1 [Syk kinase inhibitor II, 2-(2-Aminoethylamino)-4-(3-trifluoromethylanilino)-pyrimidine-5-carboxamide]
- parasitemia of infected patient blood [6]: completely eliminating parasitemia
- inhibition of vesiculation vs untreated parasite cultures [7]: ~50%
- parasitemia level as % of the initial level ([8]; 1 μM): ~80%
- inhibition of parasite re-infection ([8]; 1 μM, added at 40 and 48 hours post initial infection): little impact
- parasitemia level as % of the initial level ([8]; 10 μM): ~80%
- inhibition at 1 µM ([8]; Plasmodium falciparum, 1 μM, added 24 hours after the initial infection, read-out: inhibition of parasite re-infection): ~100%
- effect on level of parasitemia during second cycle (re-infection) [8]: significantly dropped the level of parasitemia
- effect on level of parasitemia during first parasite cycle [8]: no effect
- effect when culture is treated prior to infection with normal merozoites ([8]; pre-treatment of new culture): no effect in blocking the parasitemia
- IC50 ([9]; Homo sapiens, sample pre-treatment, parasitemia 0.1%, read-out: IC50 Syk kinase inhibitor II): < 600 nM
- elimination of parasites in malaria infected blood ([9]; pre- and post-artemisinin treatment): completely eliminate parasites
- maximum level of tyrosine phosphorylated band 3 (relative to 2 mM vanadate) [10]: ~35%

SMILES: COc1ccc(-c2cc3nccn3c(NC3N=CC=CC3C(N)=O)n2)cc1OC (centres unmarked) [Syk kinase inhibitor IV]
- parasitemia level as % of the initial level ([8]; 10 μM): ~80%
- effect on level of parasitemia during second cycle (re-infection) [8]: significantly dropped the level of parasitemia
- effect on level of parasitemia during first parasite cycle [8]: did not cause changes of parasitemia
